Results as given in patent publication US6274715A, “Tricyclic erythromycin derivatives” (priority 1997, dated 2001).
Converted amounts (≈) assume the structure as drawn.

What was measured:
Format in all cases: cell-based
ESCHERICHIA COLI DC-2 = assay: In vitro antibacterial activity, MIC, BHI agar dilution; conditions: E. coli DC-2, unit assumed
CANDIDA ALBICANS CCH 442 = assay: as above
ESCHERICHIA COLI KNK 437 = conditions: E. coli KNK 437; BHI agar; unit assumed
[1] = tested on: PSEUDOMONAS AERUGINOSA DPHD-5263; assay: In vitro antibacterial activity, MIC, BHI agar dilution; conditions: P. aeruginosa DPHD-5263, unit assumed
EN[…] ATCC 8043 = assay: as above; conditions: E. faecium ATCC 8043, unit assumed
Experimental: (§1) Representative compounds of the present invention were assayed in vitro for antibacterial activity as follows: Twelve petri dishes containing successive aqueous dilutions of the test compound mixed with 10 mL of sterilized Brain Heart Infusion (BHI) agar (Difco 0418-01-5) were prepared. Each plate was inoculated with 1:100 (or 1:10 for slow-growing strains, such as Micrococcus and Streptococcus) dilutions of up to 32 different microorganisms, using a Steers replicator block. The inoculated plates were incubated at 35-37° C. for 20 to 24 hours. In addition, a control plate, using BHI agar containing no test compound, was prepared and incubated at the beginning and end of each test.
(§2) An additional plate containing a compound having known susceptibility patterns for the organisms being tested and belonging to the same antibiotic class as the test compound was also prepared and incubated as a further control, as well as to provide test-to-test comparability. Erythromycin A was used for this purpose.
(§3) After incubation, each plate was visually inspected. The minimum inhibitory concentration (MIC) was defmed as the lowest concentration of drug yielding no growth, a slight haze, or sparsely isolated colonies on the inoculum spot as compared to the growth control.

M[…] ATCC 9341 = assay: as above; conditions: M. luteus ATCC 9341, unit assumed
Experimental: as §1, §2, §3

M[…] ATCC 4698 = assay: as above; conditions: M. luteus ATCC 4698, unit assumed
Experimental: as §1, §2, §3

STR[…] 508 = assay: as above
Experimental: as §1, §2, §3

ESCHERICHIA COLI JUHL = conditions: E. coli JUHL; BHI agar; unit assumed
[2] = tested on: STAPHYLOCOCCUS AUREUS 1775; assay: In vitro antibacterial activity, MIC, BHI agar dilution; conditions: S. aureus 1775, unit assumed
[3] = tested on: STREPTOCOCCUS BOVIS A-5169; assay: as above; conditions: S. bovis A-5169, unit assumed
[4] = tested on: KLEBSIELLA PNEUMONIAE ATCC 8045; assay: as above; conditions: K. pneumoniae ATCC 8045, unit assumed
[5] = tested on: STREPTOCOCCUS PYOGENES 930; assay: as above
[6] = tested on: PSEUDOMONAS AERUGINOSA BMH10; assay: as above; conditions: P. aeruginosa BMH10, unit assumed
[7] = tested on: PSEUDOMONAS AERUGINOSA 5007; assay: as above; conditions: P. aeruginosa 5007, unit assumed
[8] = tested on: MYCOBACTERIUM SMEGMATIS ATCC 114; assay: as above; conditions: M. smegmatis ATCC 114, unit assumed
PSEUDOMONAS CEPACIA 296I = assay: as above; conditions: P. cepacia 296I, unit assumed
[9] = tested on: STAPHYLOCOCCUS AUREUS CMX 642A; assay: as above; conditions: S. aureus CMX 642A, unit assumed
ESCHERICHIA COLI H560 = assay: as above; conditions: E. coli H560, unit assumed
[10] = tested on: PSEUDOMONAS AERUGINOSA K799/WT; assay: as above; conditions: P. aeruginosa K799/WT, unit assumed
[11] = tested on: PROVIDENCIA STUARTII CMX 640; conditions: P. stuartii CMX 640; BHI agar; unit assumed
[12] = tested on: STAPHYLOCOCCUS AUREUS A-5278; assay: In vitro antibacterial activity, MIC, BHI agar dilution; conditions: S. aureus A-5278, unit assumed
[13] = tested on: STAPHYLOCOCCUS EPIDERMIDIS 3519; conditions: S. epidermidis 3519; BHI agar; unit assumed
[14] = tested on: STREPTOCOCCUS PYOGENES EES61; assay: In vitro antibacterial activity, MIC, BHI agar dilution
[15] = tested on: STAPHYLOCOCCUS AUREUS CMX 553; assay: as above; conditions: S. aureus CMX 553, unit assumed
ESCHERICHIA COLI SS = assay: as above; conditions: E. coli SS
[16] = tested on: PSEUDOMONAS AERUGINOSA DPHD-2862; assay: as above; conditions: P. aeruginosa DPHD-2862, unit assumed
[17] = tested on: ENTEROBACTER AEROGENES ATCC 13048; assay: as above; conditions: E. aerogenes ATCC 13048, unit assumed
[18] = tested on: STREPTOCOCCUS PYOGENES PIU 2548; assay: as above; conditions: S. pyogenes PIU 2548, unit assumed
[19] = tested on: PSEUDOMONAS AERUGINOSA K799/61; assay: as above
[20] = tested on: STAPHYLOCOCCUS AUREUS NCTC10649M; assay: as above; conditions: S. aureus NCTC10649M, unit assumed
[21] = tested on: STAPHYLOCOCCUS AUREUS ATCC 6538P; assay: as above; conditions: S. aureus ATCC 6538P, 35-37° C., 20 to 24 hours, unit assumed
[22] = C. albicans CCH 442, unit assumed
[23] = S. agalactiae CMX 508, unit assumed
[24] = S. pyogenes EES61, unit assumed

| SMILES | MIC (ESCHERICHIA COLI DC-2) [µg/mL] | MIC (CANDIDA ALBICANS CCH 442; [22]) [µg/mL] | MIC (ESCHERICHIA COLI KNK 437) [µg/mL] | MIC [1] [µg/mL] | MIC (EN[…] ATCC 8043) [µg/mL] | MIC (M[…] ATCC 9341) [µg/mL] | MIC (M[…] ATCC 4698) [µg/mL] | MIC (STR[…] 508; [23]) [µg/mL] | MIC (ESCHERICHIA COLI JUHL) [µg/mL] | MIC [2] [µg/mL] | MIC [3] [µg/mL] | MIC [4] [µg/mL] | MIC ([5]; S. pyogenes 930, unit assumed) [µg/mL] | MIC [6] [µg/mL] | MIC [7] [µg/mL] | MIC [8] [µg/mL] | MIC (PSEUDOMONAS CEPACIA 296I) [µg/mL] | MIC [9] [µg/mL] | MIC [12] [µg/mL] | MIC [18] [µg/mL] | also measured |
| --- | --- | --- | --- | --- | --- | --- | --- | --- | --- | --- | --- | --- | --- | --- | --- | --- | --- | --- | --- | --- | --- |
| CCC1OC(=O)C(C)C(=O)C(C)C(OC2OC(C)CC(N(C)C)C2O)C(C)(OC)CC(C)C2=NCC(C)(CN(C)C)N3C(=O)OC1(C)C3C2C (stereo not drawn) [Example 136] | > 100 | > 100 | > 100 | > 100 | 0.2 (≈ 0.282 µM) | 0.1 (≈ 0.141 µM) | 0.78 (≈ 1.1 µM) | 0.1 (≈ 0.141 µM) | 100 (≈ 141 µM) | > 100 | 0.02 (≈ 0.0282 µM) | > 100 | > 100 | > 100 | > 100 | 6.2 (≈ 8.75 µM) | > 100 | 1.56 (≈ 2.2 µM) | > 100 | 1.56 (≈ 2.2 µM) | MIC (ESCHERICHIA COLI H560): 100 µg/mL (≈ 141 µM); MIC [10]: > 100 µg/mL; MIC [11]: > 100 µg/mL; MIC [13]: 1.56 µg/mL (≈ 2.2 µM); MIC [14, 24]: 0.1 µg/mL (≈ 0.141 µM); MIC [15]: 1.56 µg/mL (≈ 2.2 µM); MIC (ESCHERICHIA COLI SS; unit assumed): 0.78 µg/mL (≈ 1.1 µM); MIC [16]: > 100 µg/mL; MIC [17]: > 100 µg/mL |
| CC[C@H]1OC(=O)[C@H](C)C(=O)[C@H](C)[C@@H](O[C@@H]2O[C@H](C)C[C@H](N(C)C)[C@H]2O)[C@](C)(OC)C[C@@H](C)C2=NC(COCc3ccccc3)C(COCc3ccccc3)N3C(=O)O[C@@]1(C)[C@H]3[C@H]2C (stereo partly drawn) [Example 146] | 100 (≈ 114 µM) | 50 (≈ 56.9 µM) | 25 (≈ 28.5 µM) | 100 (≈ 114 µM) | 0.05 (≈ 0.0569 µM) | 0.05 (≈ 0.0569 µM) | 0.2 (≈ 0.228 µM) | 0.05 (≈ 0.0569 µM) | 50 (≈ 56.9 µM) | 50 (≈ 56.9 µM) | 0.05 (≈ 0.0569 µM) | 100 (≈ 114 µM) | 12.5 (≈ 14.2 µM) | 100 (≈ 114 µM) | 100 (≈ 114 µM) | 0.39 (≈ 0.444 µM) | 25 (≈ 28.5 µM) | 0.39 (≈ 0.444 µM) | 50 (≈ 56.9 µM) | 0.78 (≈ 0.888 µM) | MIC ([19]; P. aeruginosa K799/61, unit assumed): 0.78 µg/mL (≈ 0.888 µM); MIC [20]: 0.39 µg/mL (≈ 0.444 µM); MIC [21]: 0.39 µg/mL (≈ 0.444 µM); MIC (ESCHERICHIA COLI H560): 25 µg/mL (≈ 28.5 µM); MIC [10]: 100 µg/mL (≈ 114 µM); MIC [11]: 100 µg/mL (≈ 114 µM); MIC [13]: 0.39 µg/mL (≈ 0.444 µM); MIC [14, 24]: 0.05 µg/mL (≈ 0.0569 µM); MIC [15]: 0.39 µg/mL (≈ 0.444 µM); MIC (ESCHERICHIA COLI SS; unit assumed): 0.78 µg/mL (≈ 0.888 µM); MIC [16]: 100 µg/mL (≈ 114 µM); MIC [17]: > 100 µg/mL |
| CC[C@H]1OC(=O)[C@H](C)C(=O)[C@H](C)[C@@H](O[C@@H]2O[C@H](C)C[C@H](N(C)C)[C@H]2O)[C@](C)(OC)C[C@@H](C)C2=NC(COCc3ccc(Cl)cc3)C(COCc3ccc(Cl)cc3)N3C(=O)O[C@@]1(C)[C@H]3[C@H]2C (stereo partly drawn) [Example 148] |  |  |  |  | 0.78 (≈ 0.824 µM) |  | 1.56 (≈ 1.65 µM) |  |  |  | 0.2 (≈ 0.211 µM) |  |  |  |  |  |  |  | 12.5 (≈ 13.2 µM) | 3.1 (≈ 3.27 µM) | MIC (CANDIDA ALBICANS CCH 442; C. albicans CCH 442, listed as Ex 148, unit assumed): > 100 µg/mL; MIC (STR[…] 508; S. agalactiae CMX 508, listed as Ex 148, unit assumed): 0.39 µg/mL (≈ 0.412 µM); MIC ([19]; P. aeruginosa K799/61, listed as Ex 148, unit assumed): 25 µg/mL (≈ 26.4 µM); MIC ([5]; S. pyogenes 930, listed as Ex 148, unit assumed): 6.2 µg/mL (≈ 6.55 µM); MIC ([14]; S. pyogenes EES61, listed as Ex 148, unit assumed): 0.2 µg/mL (≈ 0.211 µM); MIC (ESCHERICHIA COLI SS; listed as Ex 148, unit assumed): 25 µg/mL (≈ 26.4 µM) |
